Values of other authors as cited in US20180243247A1, “DRUG COMBINATIONS FOR CEREBROVASCULAR DISEASE” (priority 2017, published 2018).
Where two headings read alike, the source gives them in different places.

Columns and labels:
[1] = tested on: rodent models of CNS ischemia

For `NCCCNCCCCNCCC(=O)NCCCCCNC(=O)[C@H](CC(N)=O)NC(=O)Cc1ccc(O)cc1O` [JSTX-3], which “calcium influx through the AMPA receptor” value (AMPA receptor) is on record?
The value was “dramatically reduces calcium influx”.

Which results are given for `C=CC[C@@H]1/C=C(\C)C[C@H](C)C[C@H](OC)[C@H]2O[C@@](O)(C(=O)C(=O)N3CCCC[C@H]3C(=O)O[C@H](/C(C)=C/[C@@H]3CC[C@@H](O)[C@H](OC)C3)[C@H](C)[C@@H](O)CC1=O)[C@H](C)C[C@@H]2OC` [Tacrolimus]?
neuroprotection ([1]; dose concentration of 0.1 mg/kg): neuroprotective; neuroprotection ([1]; lower doses than 0.1 mg/kg, monotherapy): not neuroprotective; neuroprotective effects ([1]; rodent models of CNS ischemia): exhibits neuroprotective effects
